# Test: Human Liver Microsomal Stability (Test C)
# Format: in vitro ADME
# Settings: human, liver microsomes
# Outline: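 Human liver microsome incubation per the Wernevik et al. integrated DMPK panel protocol. Intrinsic clearance reported as CLint in μl/min/mg protein, averaged arithmetically over repeat runs.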
row,microsomal CLint,SMILES
1,43 µL/min/mg,COc1cc(F)c(O[C@H]2CC[C@@H](C(=O)O)CC2)cc1C(=O)N[C@@H]1[C@H]2CC[C@H](C2)[C@@H]1C(=O)Nc1ccc(F)c(S(F)(F)(F)(F)F)c1 [Example 433]
2,7.2 µL/min/mg,"COc1cc(F)c(-c2ccc(C(=O)O)cc2)cc1C(=O)N[C@H]1[C@@H](C(=O)Nc2cccc(S(=O)(=O)C(F)(F)F)c2)[C@@H]2C=C[C@H]1C2 (single isomer, unassigned) [Example 552]"
3,54 µL/min/mg,"COc1cc(F)c(O[C@H]2CC[C@@](C)(C(=O)O)CC2)cc1C(=O)N[C@@H]1[C@H]2CC[C@H](C2)[C@@H]1C(=O)Nc1cccc(S(=O)(=O)C(F)(F)F)c1 [Example 208, (1S,4s)-4-(2-Fluoro-4-methoxy-5-(((1S,2R,3S,4R)-3-((3-((trifluoromethyl)sulfonyl)phenyl)carbamoyl)bicyclo[2.2.1]heptan-2-yl)carbamoyl)phenoxy)-1-methylcyclohexane-1-carboxylic acid]"
4,61 µL/min/mg,COc1cc(F)c(O[C@H]2CC[C@@](C)(C(=O)O)CC2)cc1C(=O)N[C@@H]1[C@H]2CC[C@H](C2)[C@@H]1C(=O)Nc1ccc(F)c(S(F)(F)(F)(F)F)c1 [Example 353]

# Source: patent publication US11667602B2, “Compounds and their use” (AstraZeneca AB, priority 2020, dated 2023)
